Source: the supplement of paper PMC10307832

Assays:
Experiment in all cases: relative viability (nuclei count vs DMSO), 5 days (fraction); higher = more cells survive
[1] = compound: CC[C@@H](C)CNCC(=O)N1CCC2=C([C@@H]1COC3=CC=CC(=C3)C)C=CS2 [RU-SKI 43]
Procedure, shortened: (§1)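 Vehicle-anchored 1536-well plates of lung cancer cell lines, held overnight at 37 °C, were pinned with five library-drug doses (not always all listed) spaced by √10. No medium change followed over the next 5 days, after which the cells were fixed, permeabilised and Hoechst-stained together and imaged at 4×. Nuclei were counted with MetaXpress, and viability is treated-well nuclei over vehicle-well nuclei, taken as a median across plates. Plates passed with control CV below 25% and at least one doubling.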

[2] = compound: Cn1cc(-c2cnc3ccc4ccc(CS(=O)(=O)NCc5ccccn5)cc4c(=O)c3c2)cn1 [MK-8033]
Procedure, shortened: as §1

[3] = compound: CCc1c2c(nc3ccc(OC(=O)N4CCC(N5CCCCC5)CC4)cc13)-c1cc3c(c(=O)n1C2)COC(=O)[C@]3(O)CC [Irinotecan]
Procedure, shortened: as §1

[4] = compound: CC[C@@H](C)CNCC(=O)N1CCC2=C([C@@H]1COC3=CC=CC(=C3)C)C=CS2 [RU-SKI 43] + Cc1nc(NC(=O)N2CCC[C@H]2C(N)=O)sc1-c1ccnc(C(C)(C)C(F)(F)F)c1 [Alpelisib] (partner 2 µM)
Procedure, shortened: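 After 5 days of treatment, lung cancer cells in 1536-well plates were fixed and stained in a single step (final 0.05% Triton X-100, 1% formaldehyde, 1 ug/ml Hoechst) and their nuclei counted on 4× images. Treatment had been applied by pin tool the day after seeding as one drug alone or as a fixed anchor-drug dose with five library-drug doses (not always all listed) in √10 steps. Relative viability is the nuclei count of treated wells divided by that of vehicle wells, and values are medians of duplicate plates.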

Cell Line	relative viability ([1]; 0.1 µM)	relative viability ([1]; 0.3162 µM)	relative viability ([1]; 1 µM)	relative viability ([1]; 3.162 µM)	relative viability ([1]; 10 µM)	relative viability ([2]; 0.02 µM)	relative viability ([2]; 0.06325 µM)	relative viability ([2]; 0.2 µM)	relative viability ([2]; 0.6325 µM)	relative viability ([2]; 2 µM)	relative viability ([3]; 0.6325 µM)	relative viability ([3]; 2 µM)	relative viability ([3]; 6.325 µM)	relative viability ([3]; 20 µM)	relative viability ([4]; first compound 0.1 µM)	relative viability ([4]; first compound 0.3162 µM)	relative viability ([4]; first compound 1 µM)	relative viability ([4]; first compound 3.162 µM)	relative viability ([4]; first compound 10 µM)
NCI-H1703	0.82	1.23	0.854	0.972	0.52	0.896	0.85	0.825	0.911	0.855	0.761	1.32	0.613	0.205	0.329	0.31	0.338	0.339	0.239
NCI-H1793	0.986	0.939	1	0.894	0.755	0.935		0.761	0.792	0.8		0.905	0.463	0.227	0.676	0.784	0.764	0.894	0.686
NCI-H596	0.945	0.965	1.01	0.963	0.983	0.918	0.838	0.971	0.983	1.04	0.889	1.07	0.914	0.643	0.395	0.481	0.508	0.6	0.482
NCI-H2347	0.978	1.09	1.1	0.97	0.967	1.02	1.02	0.984	1.03	1.04	0.789	0.83	0.483	0.495	1.1	1.19	1.13	1.15	0.949
201T	1.03	0.973	1.08	1.05	0.981	0.967	0.974	0.9	0.976	0.963		0.996	0.467	0.33	1.08	1.01	0.984	1.03	1.01
NCI-H1734	0.961	1.05	1.03	1.07	0.88	1.1	0.845	0.944	0.993	0.985		0.77	0.195	0.181	0.595	0.698	0.755	0.672	0.671
SW 1573	1.01	1.16	0.954	1.07	0.802	1.05	0.84	0.917	0.969	0.893	0.571	0.709	0.271	0.142	0.884	0.937	0.695	0.793	0.637
NCI-H1993	0.927	0.899	1.06	0.924	0.925	0.925	0.736	0.663	0.736	0.727	0.596	0.889	0.667	0.628	0.655	0.678	0.702	0.701	0.66
NCI-H1755	1.03	1.03	1.1	1.1	1	0.982	1.02	0.945	0.973	0.974	0.966	0.984	0.433	0.408	0.97	1.21	1.04	1.05	0.916
